Where two headings read alike, the source gives them in different places. Peptide text beside a SMILES is read from it. A value given as a limit tells only on which side of the number the result lay.

In one data set the test system is E. coli ATCC 25922. How it is done: (§1) The antimicrobial activities of VIP and its analogues were tested against S. aureus ATCC 25923 and E. coli ATCC 25922 according to the method reported by Wani et al. with slight modification. The final peptide concentrations ranged from 0.5 to 256 μM. The tests were performed in triplicate using 4 replicates for each experiment. In addition, S. aureus ATCC 25923 and E. coli ATCC 25922 (2 × 10^6 CFU/mL) were treated with natural VIP and VIP8 at MIC for 2 h. […] The haemolytic activity of VIP and VIP derivatives were measured using porcine erythrocytes according to previous method. MTT (3-[4,5 dimethylthiozol-2-yl]-2,5-diphenyltetrazolium bromide) was used to determine the cytotoxicity of VIP and its analogue on porcine intestinal epithelial cells IPEC-J2. Stable experiments were conducted with reference to the literature with slightly changes. First, the pH of the mediums was adjusted to acidic (pH 4.0, pH 5.0, and pH 6.0) and basic (pH 8.0, pH 9.0, and pH 10.0) conditions. To investigate the effects of ion strength, the bacterial mediums were supplemented with different concentrations of NaCl (20 mM, 60 mM, and 180 mM) or MgCl2 (1 mM, 25 mM, and 50 mM). Then, bacteria were incubated with VIP, VIP analogues 2 and 8, respectively. After 3 h of incubation, bacterial viability was measured with a Synergy HT multimode reader (BioTek, Winooski, VT, USA) at 600 nm.
(§2) Both the agar diffusion test and modified broth microdilution method were used to evaluate the antimicrobial activity of recombinant expressed VIP8. For the Oxford cup agar diffusion, the sample was added to an Oxford cup, which was then placed on a Mueller-Hinton agar plate containing 1 × 10^5 colony-forming units of S. aureus […]. Chemically-synthesized VIP8 and ampicillin were used as the positive control. The minimal inhibition concentration was determined by the method reported by Wani et al..

The subject of another data set is S. aureus ATCC 25923. How it is done:
as §1, §2

The mark [1] stands for this setting: E. coli ATCC 25922, peptide 0.5 to 256 μM, triplicate, 4 replicates each, Table 2.
The mark [2] stands for this setting: S. aureus ATCC 25923, peptide 0.5 to 256 μM, triplicate, 4 replicates each, Table 2.

For the molecule `CC[C@H](C)[C@H](NC(=O)[C@H](CO)NC(=O)[C@H](CC(N)=O)NC(=O)[C@H](CC(C)C)NC(=O)[C@H](Cc1ccc(O)cc1)NC(=O)[C@H](CCCCN)NC(=O)[C@H](CCCCN)NC(=O)[C@@H](NC(=O)[C@H](C)NC(=O)[C@H](CCSC)NC(=O)[C@H](CCC(N)=O)NC(=O)[C@H](CCCCN)NC(=O)[C@H](CCCNC(=N)N)NC(=O)[C@H](CC(C)C)NC(=O)[C@H](CCCNC(=N)N)NC(=O)[C@@H](NC(=O)[C@H](Cc1ccc(O)cc1)NC(=O)[C@H](CC(N)=O)NC(=O)[C@H](CCCCN)NC(=O)[C@@H](NC(=O)[C@H](Cc1ccccc1)NC(=O)[C@@H](NC(=O)[C@H](C)NC(=O)[C@H](CCCCN)NC(=O)[C@H](CO)NC(=O)[C@@H](N)Cc1c[nH]cn1)C(C)C)[C@@H](C)O)[C@@H](C)O)C(C)C)C(=O)N[C@@H](CC(C)C)C(=O)N[C@H](C(=O)O)[C@@H](C)O` [VIP5] (H-HSKAVFTKNYTRLRKQMAVKKYLNSILT-OH), the “MBC (minimum bactericidal concentration)” value in the data set on E. coli ATCC 25922 (ATCC 25922, 2 h) was greater than 256 µM; in the data set on S. aureus ATCC 25923 (ATCC 25923, 2 h) it was greater than 256 µM. The “MIC (minimum inhibitory concentration)” value in the data set on E. coli ATCC 25922 (ATCC 25922, 2 h) is greater than 256 µM; with S. aureus ATCC 25923 (ATCC 25923, 2 h) it was greater than 256 µM.
Regarding `CC[C@H](C)[C@H](NC(=O)[C@H](CO)NC(=O)[C@H](CC(N)=O)NC(=O)[C@H](CC(C)C)NC(=O)[C@H](Cc1ccc(O)cc1)NC(=O)[C@H](CCCCN)NC(=O)[C@H](CCCCN)NC(=O)[C@@H](NC(=O)[C@H](C)NC(=O)[C@H](CCSC)NC(=O)[C@H](CCC(N)=O)NC(=O)[C@H](CCCCN)NC(=O)[C@H](CCCNC(=N)N)NC(=O)[C@H](CC(C)C)NC(=O)[C@H](CCCNC(=N)N)NC(=O)[C@@H](NC(=O)[C@H](Cc1ccc(O)cc1)NC(=O)[C@H](CC(N)=O)NC(=O)[C@H](CCCCN)NC(=O)[C@@H](NC(=O)[C@H](Cc1ccccc1)NC(=O)[C@@H](NC(=O)[C@H](C)NC(=O)[C@H](CCCCN)NC(=O)[C@H](CO)NC(=O)[C@@H](N)Cc1c[nH]cn1)C(C)C)[C@@H](C)O)[C@@H](C)O)C(C)C)C(=O)N[C@@H](CC(C)C)C(=O)N[C@@H](CC(N)=O)C(=O)O` [VIP2] (H-HSKAVFTKNYTRLRKQMAVKKYLNSILN-OH), the “Cytotoxicity (in words)” value in the data set with 3T3-L1 cells is “no cytotoxicity”. Besides, the “MBC (minimum bactericidal concentration)” value in the data set with E. coli ATCC 25922 (ATCC 25922, 2 h) worked out at 32 µM; in the data set with S. aureus ATCC 25923 (ATCC 25923, 2 h), 128 µM. Besides, the “MIC (minimum inhibitory concentration)” value with E. coli ATCC 25922 (ATCC 25922, 2 h) was 16 µM; with S. aureus ATCC 25923 (ATCC 25923, 2 h), 64 µM.
`CC[C@H](C)[C@H](NC(=O)CNC(=O)[C@H](CCC(=O)O)NC(=O)[C@H](CO)NC(=O)[C@@H](NC(=O)[C@H](CCCNC(=N)N)NC(=O)[C@H](CCCCN)NC(=O)[C@H](CCCCN)NC(=O)[C@H](C)NC(=O)[C@H](CO)NC(=O)[C@H](CC(N)=O)NC(=O)[C@H](CCC(=O)O)NC(=O)[C@H](CC(C)C)NC(=O)[C@H](CCCCN)NC(=O)[C@H](CCCCN)NC(=O)[C@H](C)NC(=O)[C@@H](NC(=O)[C@H](CCCCN)NC(=O)[C@H](CO)NC(=O)[C@H](CC(C)C)NC(=O)[C@H](Cc1c[nH]c2ccccc12)NC(=O)[C@@H](N)CO)[C@@H](C)O)[C@@H](C)CC)C(=O)N[C@@H](C)C(=O)N[C@H](C(=O)N[C@@H](C)C(=O)N[C@H](C(=O)N[C@@H](CCC(N)=O)C(=O)NCC(=O)NCC(=O)N1CCC[C@H]1C(=O)N[C@@H](CCCNC(=N)N)C(=O)O)[C@@H](C)CC)[C@@H](C)CC` [Cecropin P1, reference compound] (H-SWLSKTAKKLENSAKKRISEGIAIAIQGGPR-OH): in the data set with E. coli ATCC 25922 (ATCC 25922, 2 h), the “MBC (minimum bactericidal concentration)” value was determined as 4 µM, the “MIC (minimal inhibitory concentration)” value was determined as 2 µM and the “MIC (minimum inhibitory concentration)” value stood at 2 µM. In the data set on S. aureus ATCC 25923 (ATCC 25923, 2 h), the “MBC (minimum bactericidal concentration)” value was 8 µM, the “MIC (minimal inhibitory concentration)” value was determined as 8 µM and the “MIC (minimum inhibitory concentration)” value amounted to 8 µM.
`CC[C@H](C)[C@H](NC(=O)[C@H](C)NC(=O)[C@H](C)NC(=O)[C@H](CC(C)C)NC(=O)[C@H](Cc1ccc(O)cc1)NC(=O)[C@H](CCCNC(=N)N)NC(=O)[C@H](CCCNC(=N)N)NC(=O)[C@@H](NC(=O)[C@H](C)NC(=O)[C@H](CC(C)C)NC(=O)[C@H](CCC(N)=O)NC(=O)[C@H](CCCNC(=N)N)NC(=O)[C@H](CCCNC(=N)N)NC(=O)[C@H](CC(C)C)NC(=O)[C@H](CCCNC(=N)N)NC(=O)[C@@H](NC(=O)[C@H](Cc1ccc(O)cc1)NC(=O)[C@H](CC(N)=O)NC(=O)[C@H](C)NC(=O)[C@@H](NC(=O)[C@H](Cc1ccccc1)NC(=O)[C@@H](NC(=O)[C@H](C)NC(=O)[C@H](CC(=O)O)NC(=O)[C@H](CO)NC(=O)[C@@H](N)Cc1c[nH]cn1)C(C)C)[C@@H](C)O)[C@@H](C)O)C(C)C)C(=O)N[C@@H](CC(C)C)C(=O)NCC(=O)N[C@@H](CCCNC(=N)N)C(=O)N[C@@H](CCCNC(=N)N)C(=O)O` [VIP7] (H-HSDAVFTANYTRLRRQLAVRRYLAAILGRR-OH): in the data set on E. coli ATCC 25922 (ATCC 25922, 2 h), the “MBC (minimum bactericidal concentration)” value was 8 µM and the “MIC (minimum inhibitory concentration)” value is 8 µM. Further, in the data set on S. aureus ATCC 25923 (ATCC 25923, 2 h), the “MBC (minimum bactericidal concentration)” value came out at 32 µM and the “MIC (minimum inhibitory concentration)” value was 16 µM.
Take `CC[C@H](C)[C@H](NC(=O)[C@H](CO)NC(=O)[C@H](CC(N)=O)NC(=O)[C@H](CC(C)C)NC(=O)[C@H](Cc1ccc(O)cc1)NC(=O)[C@H](CCCCN)NC(=O)[C@H](CCCCN)NC(=O)[C@@H](NC(=O)[C@H](C)NC(=O)[C@H](CCSC)NC(=O)[C@H](CCC(N)=O)NC(=O)[C@H](CCCCN)NC(=O)[C@H](CCCNC(=N)N)NC(=O)[C@H](CC(C)C)NC(=O)[C@H](CCCNC(=N)N)NC(=O)[C@@H](NC(=O)[C@H](Cc1ccc(O)cc1)NC(=O)[C@H](CC(N)=O)NC(=O)[C@H](CC(=O)O)NC(=O)[C@@H](NC(=O)[C@H](Cc1ccccc1)NC(=O)[C@@H](NC(=O)[C@H](C)NC(=O)[C@H](CC(=O)O)NC(=O)[C@H](CO)NC(=O)[C@@H](N)Cc1c[nH]cn1)C(C)C)[C@@H](C)O)[C@@H](C)O)C(C)C)C(=O)N[C@@H](CC(C)C)C(=O)N[C@H](C(=O)O)[C@@H](C)O` [VIP4] (H-HSDAVFTDNYTRLRKQMAVKKYLNSILT-OH): in the data set on E. coli ATCC 25922 (ATCC 25922, 2 h), the “MBC (minimum bactericidal concentration)” value is greater than 256 µM and the “MIC (minimum inhibitory concentration)” value is greater than 256 µM. In addition, in the data set on S. aureus ATCC 25923 (ATCC 25923, 2 h), the “MBC (minimum bactericidal concentration)” value was greater than 256 µM and the “MIC (minimum inhibitory concentration)” value was greater than 256 µM.
As for `CC[C@H](C)[C@H](NC(=O)[C@H](CO)NC(=O)[C@H](CC(N)=O)NC(=O)[C@H](CC(C)C)NC(=O)[C@H](CO)NC(=O)[C@H](CCCCN)NC(=O)[C@H](CCCCN)NC(=O)[C@@H](NC(=O)[C@H](C)NC(=O)[C@H](CCSC)NC(=O)[C@H](CCC(N)=O)NC(=O)[C@H](CCCCN)NC(=O)[C@H](CCCNC(=N)N)NC(=O)[C@H](CC(C)C)NC(=O)[C@H](CCCNC(=N)N)NC(=O)[C@@H](NC(=O)[C@H](CO)NC(=O)[C@H](CC(N)=O)NC(=O)[C@H](CC(=O)O)NC(=O)[C@@H](NC(=O)[C@H](Cc1ccccc1)NC(=O)[C@@H](NC(=O)[C@H](C)NC(=O)[C@H](CC(=O)O)NC(=O)[C@H](CO)NC(=O)[C@@H](N)Cc1c[nH]cn1)C(C)C)[C@@H](C)O)[C@@H](C)O)C(C)C)C(=O)N[C@@H](CC(C)C)C(=O)N[C@@H](CC(N)=O)C(=O)O` [VIP3] (H-HSDAVFTDNSTRLRKQMAVKKSLNSILN-OH), the “MBC (minimum bactericidal concentration)” value in the data set on E. coli ATCC 25922 (setting [1]) and in the data set with S. aureus ATCC 25923 (setting [2]) was greater than 256 µM in each case. The “MIC (minimum inhibitory concentration)” value with E. coli ATCC 25922 (setting [1]) and in the data set on S. aureus ATCC 25923 (setting [2]) was greater than 256 µM in each case.
Take `CC[C@H](C)[C@H](NC(=O)[C@H](CO)NC(=O)[C@H](CC(N)=O)NC(=O)[C@H](CC(C)C)NC(=O)[C@H](CO)NC(=O)[C@H](CCCCN)NC(=O)[C@H](CCCCN)NC(=O)[C@@H](NC(=O)[C@H](C)NC(=O)[C@H](CCSC)NC(=O)[C@H](CCC(N)=O)NC(=O)[C@H](CCCCN)NC(=O)[C@H](CCCNC(=N)N)NC(=O)[C@H](CC(C)C)NC(=O)[C@H](CCCNC(=N)N)NC(=O)[C@@H](NC(=O)[C@H](CO)NC(=O)[C@H](CC(N)=O)NC(=O)[C@H](CC(=O)O)NC(=O)[C@@H](NC(=O)[C@H](Cc1ccccc1)NC(=O)[C@@H](NC(=O)[C@H](C)NC(=O)[C@H](CC(=O)O)NC(=O)[C@H](CO)NC(=O)[C@@H](N)Cc1c[nH]cn1)C(C)C)[C@@H](C)O)[C@@H](C)O)C(C)C)C(=O)N[C@@H](CC(C)C)C(=O)N[C@H](C(=O)O)[C@@H](C)O` [VIP6] (H-HSDAVFTDNSTRLRKQMAVKKSLNSILT-OH): in the data set on E. coli ATCC 25922 (ATCC 25922, 2 h), the “MBC (minimum bactericidal concentration)” value is greater than 256 µM and the “MIC (minimum inhibitory concentration)” value was greater than 256 µM. In addition, in the data set with S. aureus ATCC 25923 (ATCC 25923, 2 h), the “MBC (minimum bactericidal concentration)” value was greater than 256 µM and the “MIC (minimum inhibitory concentration)” value is greater than 256 µM.

Values taken from paper PMC6150413 (Molecules : A Journal of Synthetic Chemistry and Natural …, 2017).
